Test results reported in patent EP0308279A1, “Water-soluble polysaccharides, process for obtaining them, their use as medicaments and a preparation containing them” (LIPHA, LYONNAISE INDUSTRIELLE PHARMACEUTIQUE, priority 1987, dated 1989).

System: macrophages alvéolaires de rats Kyoto
Assay: Activation of alveolar macrophages (cytostatic/cytotoxic activity towards tumour target cells, tritiated thymidine incorporation)
Format: cell-based, rat
Settings: mean of 3 measurements
Description: Ce test met en évidence le phénomène d'activation des macrophages par une mesure de leur activité cytostatique ou cytotoxique envers des cellules de lignée tumorale.
Le test de mesure de l'activation des macrophages consiste à traiter une culture de macrophages alvéolaires ou péritonéaux de rat ou de souris ou de monocytes humaines par des doses des polysaccharides de l'invention variant entre 0,001 et 50 µg/ml. Il est réalisé de la manière suivante :
10⁵ macrophages de souris de souche Balb c, Swiss, C57/B16 ou DBA/2 ou de rat de souche Kyoto ou Wistar sont placés dans une plaque de microtitration dans du milieu de culture complété ou non par du sérum artificiel et de 1 à 10 µg/ml de polymyxine.
On ajoute les polysaccharides de l'invention ou le tampon correspondant sans polysaccharides comme contrôle négatif. Les cellules sont incubées 24 heures à 37°C. On élimine ensuite le surnageant et lave les cellules avec du milieu de culture.
On ajoute alors les cellules cibles tumorales L1210 ou P815 dans du milieu complet. Le rapport macrophages/cellules cibles est de 10. On incube alors la culture durant 24 heures à 37°C. Puis on ajoute 1 - 2 x 10⁴Bq de thymidine tritiée par puits. Les cellules sont récupérées après 4 heures d'incubation à 37°C sur un filtre en fibre de verre. Après séchage des filtres, la radioactivité est mesurée en présence d'un mélange scintillant.
Les résultats correspondent à une moyenne de 3 mesures. Le pourcentage d'activation est exprimé : [formula] R : radioactivité incorporée par les cellules tumorales cultivées en présence de macrophages de référence. S : radioactivité incorporée par les cellules tumorales cultivées en présence de macrophages stimulés.

**Q.** `CC(=O)N[C@H]1C(O)O[C@H](CO)[C@@H](O)[C@@H]1O[C@H](C)C(=O)N[C@@H](C)C(=O)N[C@H](CCC(=O)O)C(N)=O` (mixture of isomers) [Muramyl dipeptide (MDP), Muramyl dipeptide] was tested. Which “% d'activation des macrophages alvéolaires de rats Kyoto.” value (dose 0,01 µg/ml) did it give?
**A.** 28%

**Q.** And the “% d'activation des macrophages alvéolaires de rats Kyoto.” value (dose 1 µg/ml)?
**A.** 90%

**Q.** And the “% d'activation des macrophages alvéolaires de rats Kyoto.” value (dose 10 µg/ml)?
**A.** 92%
